Assay results: patent publication US20240415832A1 (priority 2021, published 2024)

Experiments:
[1] = tested on: C57Bl/6 mice; experiment: Lack of precipitated withdrawal from oxycodone; settings: for total withdrawal signs: oxycodone mice
[2] = target: 5-HT2A (Homo sapiens, UniProt P28223); assay type: binding
[3] = target: D1 (Homo sapiens, UniProt P21728); assay type: binding
[4] = target: D2 (Homo sapiens, UniProt P14416); assay type: binding
[5] = target: SERT (Homo sapiens, UniProt P31645); assay type: binding
[6] = tested on: C57BL/6J mice; settings: mouse, in vivo

5-HT2A, sequence (P28223 whole entry): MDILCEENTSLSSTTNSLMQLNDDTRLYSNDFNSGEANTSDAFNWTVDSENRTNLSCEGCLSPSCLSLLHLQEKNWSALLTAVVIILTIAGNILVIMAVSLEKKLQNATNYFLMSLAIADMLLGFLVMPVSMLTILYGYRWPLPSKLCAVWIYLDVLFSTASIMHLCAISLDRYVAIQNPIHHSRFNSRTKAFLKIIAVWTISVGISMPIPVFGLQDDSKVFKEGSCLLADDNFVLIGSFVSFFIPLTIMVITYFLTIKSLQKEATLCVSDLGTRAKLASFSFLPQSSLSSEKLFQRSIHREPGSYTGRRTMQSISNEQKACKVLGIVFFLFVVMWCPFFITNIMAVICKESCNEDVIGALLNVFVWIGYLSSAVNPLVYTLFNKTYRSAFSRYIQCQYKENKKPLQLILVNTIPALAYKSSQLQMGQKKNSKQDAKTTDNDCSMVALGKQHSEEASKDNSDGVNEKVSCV
D2, sequence (P14416 1-414 isoform P14416-2): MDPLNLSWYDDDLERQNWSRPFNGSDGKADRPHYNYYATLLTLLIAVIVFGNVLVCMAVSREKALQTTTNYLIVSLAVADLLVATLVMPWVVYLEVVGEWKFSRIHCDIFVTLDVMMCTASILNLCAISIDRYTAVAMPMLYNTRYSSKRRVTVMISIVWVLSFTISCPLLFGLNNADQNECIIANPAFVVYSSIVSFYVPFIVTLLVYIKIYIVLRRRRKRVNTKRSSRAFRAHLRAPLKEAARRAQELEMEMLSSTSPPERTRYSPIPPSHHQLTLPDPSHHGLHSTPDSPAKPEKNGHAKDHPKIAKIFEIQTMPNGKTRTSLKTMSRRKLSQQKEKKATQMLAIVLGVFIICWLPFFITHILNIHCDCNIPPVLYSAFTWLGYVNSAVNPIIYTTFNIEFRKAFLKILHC
D1, sequence (P21728 whole entry): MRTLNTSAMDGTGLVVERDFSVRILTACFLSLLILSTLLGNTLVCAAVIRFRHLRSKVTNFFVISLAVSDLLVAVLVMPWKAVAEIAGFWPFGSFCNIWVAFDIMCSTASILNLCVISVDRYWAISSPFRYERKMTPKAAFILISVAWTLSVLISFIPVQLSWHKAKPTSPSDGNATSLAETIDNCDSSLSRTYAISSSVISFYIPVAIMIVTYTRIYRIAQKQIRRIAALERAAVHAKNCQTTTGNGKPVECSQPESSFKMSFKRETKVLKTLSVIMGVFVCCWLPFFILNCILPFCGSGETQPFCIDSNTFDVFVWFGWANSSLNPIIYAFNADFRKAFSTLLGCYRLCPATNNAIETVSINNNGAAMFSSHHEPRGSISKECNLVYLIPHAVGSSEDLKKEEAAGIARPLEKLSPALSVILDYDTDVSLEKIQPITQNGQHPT
SERT, sequence (P31645 whole entry, species assumed): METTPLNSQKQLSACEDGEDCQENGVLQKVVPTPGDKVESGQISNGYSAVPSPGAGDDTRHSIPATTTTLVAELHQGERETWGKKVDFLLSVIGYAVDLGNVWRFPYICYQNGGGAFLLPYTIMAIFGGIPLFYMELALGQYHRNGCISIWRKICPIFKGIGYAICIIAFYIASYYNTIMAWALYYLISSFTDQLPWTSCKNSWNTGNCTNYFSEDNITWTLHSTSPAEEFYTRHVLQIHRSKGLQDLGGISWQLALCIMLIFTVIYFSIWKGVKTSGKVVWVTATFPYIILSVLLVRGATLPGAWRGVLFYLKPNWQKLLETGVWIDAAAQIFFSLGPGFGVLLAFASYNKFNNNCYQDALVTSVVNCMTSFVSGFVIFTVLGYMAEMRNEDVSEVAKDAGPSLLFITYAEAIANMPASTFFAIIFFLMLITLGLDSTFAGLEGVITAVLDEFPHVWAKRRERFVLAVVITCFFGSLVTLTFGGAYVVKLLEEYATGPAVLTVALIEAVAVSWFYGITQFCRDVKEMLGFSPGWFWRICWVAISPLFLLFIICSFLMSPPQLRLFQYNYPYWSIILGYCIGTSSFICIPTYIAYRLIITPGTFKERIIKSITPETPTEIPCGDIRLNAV

SMILES: O=C1CN2c3c(cccc3[C@@H]3CN(CCCOc4ccc(F)cc4)CC[C@@H]32)N1 [Example 1, (6bR,10aS)-8-(3-(4-fluorophenoxy)propyl)-6b,7,8,9,10,10a-hexahydro-1H-pyrido[3′,4′:4,5]pyrrolo[1,2,3-de]quinoxalin-2(3H)-one]
- somatic signs or loss of body weight ([1]; chronic saline, 17.8 mg/kg s.c., relative to vehicle (p>0.05)): does not produce any significant effects
- number of paw tremors or jumps ([1]; mice chronically administered oxycodone, doses <10 mg/kg s.c., vs vehicle): do not differ from mice administered vehicle
- body weight loss ([1]; mice receiving oxycodone chronically, <10 mg/kg): does not induce further body weight loss
- total withdrawal signs ([1]; at 10 mg/kg, p<0.05, mainly wet dog shakes): significantly more total withdrawal signs
- total withdrawal signs ([1]; escalating doses (3, 10, 17.8 mg/kg s.c.), p<0.0001): induced greater total withdrawal signs

SMILES: O=C1CN2c3c(cccc3[C@@H]3CN(CCCc4n[nH]c5cc(F)ccc45)CC[C@@H]32)N1 [Example 2, (6bR,10aS)-8-(3-(6-fluoro-1H-indazol-3-yl)propyl)-6b,7,8,9,10,10a-hexahydro-1H-pyrido[3′,4′:4,5]pyrrolo[1,2,3-de]quinoxalin-2(3H)-one]
- Ki [2]: 2.6 nM
- Ki [3]: 5.2 nM
- Ki [4]: 15 nM
- Ki [5]: 540 nM

SMILES: O=C1CN2c3c(cccc3[C@@H]3CN(CCCc4noc5cc(F)ccc45)CC[C@@H]32)N1 [Example 3, (6bR,10aS)-8-(3-(6-fluorobenzo[d]isoxazol-3-yl)propyl)-6b,7,8,9,10,10a-hexahydro-1H-pyrido[3′,4′:4,5]pyrrolo[1,2,3-de]quinoxalin-2(3H)-one]
- Ki [2]: 3.1 nM
- Ki [3]: 13 nM
- Ki [4]: 84 nM

SMILES: C=CCN1CC[C@]23c4c5ccc(O)c4O[C@H]2C(=O)CC[C@@]3(O)[C@H]1C5 [Naloxone]
- Jumps [6]: 0
- Paw Tremors [6]: 0.87
- Total Number of Signs [6]: 2.2
- body weight loss [6]: 0.5%
